{"source": "patent US20200071667A1", "about": "“COMPOSITION COMPRISING GLYCYRRHIZIN FOR INDUCING DIFFERENTIATION INTO MYELOID-DERIVED SUPPRESSOR CELL FROM MYELOID CELL” (Konkuk University Glocal Industry-Academic Collabo, priority 2018, published 2020)", "key": {"[1]": {"system": "myeloid cells obtained from blood, the heart, and the lungs", "assay": "Flow cytometric analysis of MDSC ratio in myeloid cells of mice with LPS-induced sepsis (in vivo)", "parameters": "species or system C57BL/6 mice", "experimental": "(§1) Animal experiments were performed according to the National Institutes of Health (NIH) guidelines for the care and use of experimental animals. This study was conducted with the approval of the Konkuk University Animal Care and Use Committee (KU16062). 8-week-old male C57BL/6 mice without specific pathogens were used, and as needed, experimental groups were divided into three groups: a control, an LPS group, and an LPS+GR group.\n(§2) Specifically, 0.1 ml of phosphate buffered saline (PBS; Gibco, Grand Island, N.Y., USA) was injected intraperitoneally (i.p.) into mice of the control, and 12 hours after the injection, 0.1 ml of PBS was intraperitoneally injected again into each mouse. 1 μg of LPS (Escherichia coli serotype 0111:B4, Sigma-Aldrich, St. Louis, Mo., USA) dissolved in 0.1 ml of PBS was injected intraperitoneally (i.p.) into mice of the LPS group to induce sepsis, and 12 hours after sepsis induction, 0.1 ml of PBS was intraperitoneally injected into each mouse. […]\nThe myeloid cells obtained from blood, the heart, or the lungs were washed with fluorescence-activated cell sorting (FACS) buffer (PBS containing 1% bovine serum albumin and 0.01% NaN3). […]"}, "[2]": {"system": "heart tissues and lung tissues", "assay": "Histopathologic analysis and injury score of heart and lung tissues in LPS-induced sepsis", "assay_type": "in vivo, C57BL/6 mice", "conditions": "5-point scale 0-4; LPS 1 μg i.p.; GR 100 mg/kg i.p. twice", "experimental": "as §1\nSpecifically, 0.1 ml of phosphate buffered saline (PBS; Gibco, Grand Island, N.Y., USA) was injected intraperitoneally (i.p.) into mice of the control, and 12 hours after the injection, 0.1 ml of PBS was intraperitoneally injected again into each mouse. […]\nSpecifically, the heart tissues and lung tissues of mice of each experimental group prepared in Example 1 were fixed in a 4% paraformaldehyde solution (Biosesang, Seongnam, Korea) at 25° C. overnight and inserted into paraffin blocks. […] Heart (including left and right ventricles) or lung injury was scored based on Table 2 below. Each score was determined by a 5-point scale such as 0: minimal injury, 1: minor injury, 2: moderate injury, 3: severe injury, and 4: maximum injury."}, "[3]": {"system": "IL-6", "assay": "ELISA of IL-6 in BALF and blood of mice with LPS-induced sepsis", "assay_type": "in vivo, C57BL/6 mice", "conditions": "12 hours after final injection", "experimental": "as §2\nSpecifically, for the analysis of bronchoalveolar lavage fluid and blood, 12 hours after the final injection into mice of each experimental group of Example 1, 1 μg/g of Zoletil®50 (a combined preparation of tiletamine and zolazepam, Virbac Laboratories, Carros, France) as an anesthetic and 0.1 U/g of heparin sodium (Green Cross Co., Yongin, Korea) were intraperitoneally injected into each mouse to minimize the effect of aches or pains on immunity. […] The levels of tumor necrosis factor (TNF)-α, IL-6, and IL-1β in BALF and blood were measured using a mouse enzyme-linked ELISA kit (R&D Systems Inc., Minneapolis, Minn., USA) according to the manufacturer's instructions. Samples collected from each group were analyzed in triplicate."}}, "data": [{"substance": "lipopolysaccharide [LPS]", "values": [{"measurement": "ratio of MDSCs to myeloid cells (MDSCs/myeloid cells)", "setting": "[1]; myeloid cells from blood, heart or lungs, LPS 1 μg i.p., GR 100 mg/kg i.p. twice", "result": "significantly reduced compared to the control"}, {"measurement": "blood ratio of MDSCs to CD11+GR1 myeloid cells", "setting": "[1]; preliminary study using 6 mice with LPS-induced sepsis, blood", "result": "18.4±3.13", "unit": "%"}, {"measurement": "injury score, heart tissues", "setting": "[2]", "result": "3.3±0.8"}, {"measurement": "injury score, lung tissues", "setting": "[2]", "result": "3.5±0.5"}, {"measurement": "IL-6", "setting": "[3]; BALF", "result": "650.26 ± 11.02", "unit": "pg/µL"}, {"measurement": "IL-6", "setting": "[3]; Blood", "result": "172.63 ± 14.22", "unit": "pg/µL"}]}]}
